From PubChem BioAssay (NCI)
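Cultured in 96-well plates, cells were exposed to test compound for 48 hours across five concentrations. The concentration for 50% growth inhibition is given as GI50. The concentration for full growth arrest is given as TGI.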

Tests used:
Assay in all cases: NCI tumour cell line growth inhibition, 48 h
SR leukemia = tested on: SR leukemia
U251 CNS = tested on: U251 CNS
SK-MEL-2 melanoma = tested on: SK-MEL-2 melanoma
NCI-H226 lung = tested on: NCI-H226 lung
SF-295 CNS = tested on: SF-295 CNS
TK-10 renal = tested on: TK-10 renal
BT-549 breast = tested on: BT-549 breast
SF-268 CNS = tested on: SF-268 CNS
CCRF-CEM leukemia = tested on: CCRF-CEM leukemia
SK-OV-3 ovarian = tested on: SK-OV-3 ovarian
KM12 colon = tested on: KM12 colon
HL-60(TB) leukemia = tested on: HL-60(TB) leukemia
UO-31 renal = tested on: UO-31 renal
T-47D breast = tested on: T-47D breast
NCI-H522 lung = tested on: NCI-H522 lung
SW-620 colon = tested on: SW-620 colon
OVCAR-3 ovarian = tested on: OVCAR-3 ovarian
LOX IMVI melanoma = tested on: LOX IMVI melanoma
SN12C renal = tested on: SN12C renal
MCF7 breast = tested on: MCF7 breast
CAKI-1 renal = tested on: CAKI-1 renal
SK-MEL-5 melanoma = tested on: SK-MEL-5 melanoma
HCT-15 colon = tested on: HCT-15 colon
M14 melanoma = tested on: M14 melanoma
K-562 leukemia = tested on: K-562 leukemia
MDA-MB-231 breast = tested on: MDA-MB-231 breast
NCI/ADR-RES ovarian = tested on: NCI/ADR-RES ovarian
NCI-H23 lung = tested on: NCI-H23 lung
MDA-MB-435 = tested on: MDA-MB-435
HCC-2998 colon = tested on: HCC-2998 colon
DU-145 prostate = tested on: DU-145 prostate
RPMI-8226 leukemia = tested on: RPMI-8226 leukemia
HOP-92 NSCLC = tested on: HOP-92 NSCLC
A549 NSCLC = tested on: A549 NSCLC
SK-MEL-28 melanoma = tested on: SK-MEL-28 melanoma
NCI-H460 lung = tested on: NCI-H460 lung
SNB-75 CNS = tested on: SNB-75 CNS
HS 578T breast = tested on: HS 578T breast
OVCAR-5 ovarian = tested on: OVCAR-5 ovarian
MALME-3M melanoma = tested on: MALME-3M melanoma
UACC-62 melanoma = tested on: UACC-62 melanoma
ACHN renal = tested on: ACHN renal
786-0 renal = tested on: 786-0 renal
SNB-19 CNS = tested on: SNB-19 CNS
UACC-257 melanoma = tested on: UACC-257 melanoma
MOLT-4 leukemia = tested on: MOLT-4 leukemia
OVCAR-4 ovarian = tested on: OVCAR-4 ovarian
IGROV1 ovarian = tested on: IGROV1 ovarian
A498 renal = tested on: A498 renal
HT29 colon = tested on: HT29 colon
SF-539 CNS = tested on: SF-539 CNS
OVCAR-8 ovarian = tested on: OVCAR-8 ovarian
PC-3 prostate = tested on: PC-3 prostate
COLO 205 colon = tested on: COLO 205 colon
RXF 393 renal = tested on: RXF 393 renal
HCT-116 colon = tested on: HCT-116 colon
HOP-62 NSCLC = tested on: HOP-62 NSCLC

Work on `CCOc1ccccc1CCN=C1NC(=O)/C(=C/c2ccc3ncccc3c2)S1` yielded a GI50 (SR leukemia) of 0.146 µM, a TGI (SR leukemia) of 3.04 µM and a GI50 (U251 CNS) of 1.2 µM. For the same compound, the TGI (U251 CNS) was > 25 µM, the GI50 (SK-MEL-2 melanoma) was 4.64 µM and the TGI (SK-MEL-2 melanoma) was 11.5 µM. For the same compound, the GI50 (NCI-H226 lung) was 4.32 µM, the TGI (NCI-H226 lung) was > 25 µM and the GI50 (SF-295 CNS) was 0.672 µM. For the same compound, the TGI (SF-295 CNS) was > 6 µM, the GI50 (TK-10 renal) was 1.35 µM and the TGI (TK-10 renal) was > 23.3 µM. The GI50 (BT-549 breast) was 1.74 µM, the TGI (BT-549 breast) was > 12.7 µM and the GI50 (SF-268 CNS) was 1.35 µM. For the same compound, the TGI (SF-268 CNS) was > 25 µM, the GI50 (CCRF-CEM leukemia) was 1.05 µM and the TGI (CCRF-CEM leukemia) was 7.12 µM. It also gave a GI50 (SK-OV-3 ovarian) of 1.81 µM, a TGI (SK-OV-3 ovarian) of 8.46 µM and a GI50 (KM12 colon) of 0.725 µM. For the same compound, the TGI (KM12 colon) was 10.1 µM, the GI50 (HL-60(TB) leukemia) was 0.789 µM and the TGI (HL-60(TB) leukemia) was 2.65 µM. For the same compound, the GI50 (UO-31 renal) was 1.31 µM, the TGI (UO-31 renal) was 15.9 µM and the GI50 (T-47D breast) was 1.46 µM. The TGI (T-47D breast) was > 25 µM, the GI50 (NCI-H522 lung) was 0.676 µM and the TGI (NCI-H522 lung) was 3.49 µM. It also gave a GI50 (SW-620 colon) of 0.712 µM, a TGI (SW-620 colon) of 5.28 µM and a GI50 (OVCAR-3 ovarian) of 0.772 µM. The TGI (OVCAR-3 ovarian) was 2.29 µM, the GI50 (LOX IMVI melanoma) was 1.16 µM and the TGI (LOX IMVI melanoma) was 7.9 µM. For the same compound, the GI50 (SN12C renal) was 1.61 µM, the TGI (SN12C renal) was > 25 µM and the GI50 (MCF7 breast) was 0.792 µM. For the same compound, the TGI (MCF7 breast) was > 25 µM, the GI50 (CAKI-1 renal) was 0.75 µM and the TGI (CAKI-1 renal) was > 7.13 µM. It also gave a GI50 (SK-MEL-5 melanoma) of 2.05 µM, a TGI (SK-MEL-5 melanoma) of 15.2 µM and a GI50 (HCT-15 colon) of 0.777 µM. For the same compound, the TGI (HCT-15 colon) was > 25 µM, the GI50 (M14 melanoma) was 2.17 µM and the TGI (M14 melanoma) was 10.4 µM. For the same compound, the GI50 (K-562 leukemia) was 0.84 µM, the TGI (K-562 leukemia) was 19.8 µM and the GI50 (MDA-MB-231 breast) was 4.24 µM. For the same compound, the TGI (MDA-MB-231 breast) was 18.6 µM, the GI50 (NCI/ADR-RES ovarian) was 1.28 µM and the TGI (NCI/ADR-RES ovarian) was > 22.7 µM. The GI50 (NCI-H23 lung) was 2.1 µM, the TGI (NCI-H23 lung) was > 25 µM and the GI50 (MDA-MB-435) was 0.491 µM. For the same compound, the TGI (MDA-MB-435) was 1.71 µM, the GI50 (HCC-2998 colon) was 3.05 µM and the TGI (HCC-2998 colon) was 11.8 µM. For the same compound, the GI50 (DU-145 prostate) was 1.2 µM, the TGI (DU-145 prostate) was > 16.2 µM and the GI50 (RPMI-8226 leukemia) was 1.02 µM. For the same compound, the TGI (RPMI-8226 leukemia) was 8.38 µM, the GI50 (HOP-92 NSCLC) was 3.28 µM and the TGI (HOP-92 NSCLC) was 14.6 µM. For the same compound, the GI50 (A549 NSCLC) was 1.23 µM, the TGI (A549 NSCLC) was > 25 µM and the GI50 (SK-MEL-28 melanoma) was 5.22 µM. For the same compound, the TGI (SK-MEL-28 melanoma) was > 24.1 µM, the GI50 (NCI-H460 lung) was 0.879 µM and the TGI (NCI-H460 lung) was > 25 µM. The GI50 (SNB-75 CNS) was 0.536 µM, the TGI (SNB-75 CNS) was 7.79 µM and the GI50 (HS 578T breast) was 2.76 µM. The TGI (HS 578T breast) was > 7.14 µM, the GI50 (OVCAR-5 ovarian) was 3.09 µM and the TGI (OVCAR-5 ovarian) was 15.8 µM. For the same compound, the GI50 (MALME-3M melanoma) was 3 µM, the TGI (MALME-3M melanoma) was 10.6 µM and the GI50 (UACC-62 melanoma) was 1.48 µM. For the same compound, the TGI (UACC-62 melanoma) was 10.3 µM, the GI50 (ACHN renal) was 1.45 µM and the TGI (ACHN renal) was > 25 µM. The GI50 (786-0 renal) was 1.93 µM, the TGI (786-0 renal) was > 14.3 µM and the GI50 (SNB-19 CNS) was 1.46 µM. For the same compound, the TGI (SNB-19 CNS) was > 25 µM, the GI50 (UACC-257 melanoma) was 10.5 µM and the TGI (UACC-257 melanoma) was > 22.7 µM. The GI50 (MOLT-4 leukemia) was 4.02 µM, the TGI (MOLT-4 leukemia) was > 25 µM and the GI50 (OVCAR-4 ovarian) was 1.36 µM. For the same compound, the TGI (OVCAR-4 ovarian) was > 22.9 µM, the GI50 (IGROV1 ovarian) was 1.47 µM and the TGI (IGROV1 ovarian) was 15 µM. For the same compound, the GI50 (A498 renal) was 0.744 µM, the TGI (A498 renal) was 12.8 µM and the GI50 (HT29 colon) was 0.783 µM. It also gave a TGI (HT29 colon) of 3.16 µM, a GI50 (SF-539 CNS) of 0.751 µM and a TGI (SF-539 CNS) of 2.95 µM. For the same compound, the GI50 (OVCAR-8 ovarian) was 3.08 µM, the TGI (OVCAR-8 ovarian) was > 25 µM and the GI50 (PC-3 prostate) was 0.562 µM. The TGI (PC-3 prostate) was 3.99 µM, the GI50 (COLO 205 colon) was 0.735 µM and the TGI (COLO 205 colon) was 3.07 µM. For the same compound, the GI50 (RXF 393 renal) was 1.31 µM, the TGI (RXF 393 renal) was 10.5 µM and the GI50 (HCT-116 colon) was 0.995 µM. The TGI (HCT-116 colon) was > 9.15 µM, the GI50 (HOP-62 NSCLC) was 1.44 µM and the TGI (HOP-62 NSCLC) was > 17.6 µM.
